Measured values: patent US20250090551A1, “BUDESONIDE 21-PHOSPHATE SODIUM SALT FOR USE AS ANTI-INFLAMMATORY OR ANTIASTHMATIC AGENT” (GENETIC S.P.A., priority 2021, published 2025)
In brackets after ≈: the same amount, converted by molar mass.

Experiments:
[1] = cited from earlier work
[2] = test system: BK- and C48/80-induced plasma extravasation in dorsal skin of C57Bl/6 mice; assay: Skin edema (plasma extravasation, Evans blue method) induced by BK or C48/80; type: in vivo; settings: for BK-induced plasma extravasation / reduction of C48/80-induced plasma extravasation: 2.32 μmol/kg i.p. (1.0 mg/kg Bud, 1.3 mg/kg Bud-21 P—Na2) 60 min before i.d. injection, 30 min
Description: In Protocol 3, Bud (at doses of 1.0 and 0.30 mg/kg) and Bud 21-P Na2 (at doses of 1.3 and 0.39 mg/kg) were administered on a molar base, these doses were equivalent to […] μmol/kg of each compound, respectively. The vehicle for dissolution of the compounds was sterile saline solution (0.9% NaCl) containing 12.5% DMSO (Sigma Chemical Co., St. Louis, MO). The compound solutions were prepared at concentrations such that the administered dose per kg of body weight results from the intraperitoneal (i.p.) administration of 10 ml/kg of each of the solutions.
Skin edema was assessed in mice according to the method previously described by Costa et al. (2006), Vasc. Pharmacol; 45: 209-214 and Yshii et al (2009), Toxicon; 53: 42-52. The mice were anesthetized with urethane (25% w/v, 10 ml/kg, i.p.), had their dorsal skin shaved, and thereafter i.p. treated with the vehicle/test compounds. Fifty-five minutes later, a volume of 100 μL of Evans blue dye solution (0.25% in sterile saline) was intravenously (i.v.) injected via the tail vein. Five minutes later, the BK and C48/80 were intradermally (i.d.) injected into the dorsal skin at a fixed volume of 50 μl using a randomized scheme. The same volume of Tyrode solution 50 μl was injected as a control. Thirty minutes later, a 1 ml blood sample was obtained via cardiac puncture and the mice were killed by urethane overdose followed by cervical dislocation. The blood samples were centrifuged at 6,000 g for 4 min to obtain the plasma. The dorsal skin was removed, and the injected sites were punched out using an 8 mm diameter cork borer. A non-injected skin site distant from the injection sites was also punched and taken as a blank. The dye was extracted from each piece of skin and plasma (100 μl) samples using formamide, and the absorbance of the resulting solutions was measured at 620 nm. The plasma extravasation due to each agent (expressed in μl/site) was calculated as the ratio between the absorbance of each respective skin piece, corrected by the blank value and plasma sample solutions, properly adjusted by the dilution factors [Vasc. Pharmacol (2006); 45: 209-214]. To homogenate data due to the variability of different group of animals (inter-group variations), edema data are expressed as the fold-change response relative to the mean Tyrode (control) response of each experiment.

[3] = test system: carrageenan-induced paw edema in CD-1 mice; assay: Carrageenan-induced paw edema; type: in vivo; settings: first phase; for time after carrageenan at which the significant inhibition level is reached (onset of effect): dose of 0.3 mg/kg, i.p.; for dose relation of anti-inflammatory effect / maximum inhibition of edema: doses 0.1, 0.3, 1 mg/kg i.p.; for maximum inhibition of edema: Bud-21 P—Na2 maximum with either 0.3 or 1 mg/kg
Description: In Protocol 1 (paw edema), the test compounds budesonide (Bud) and budesonide 21-phosphate sodium salt (Bud 21-P Na2) have been tested. Both compounds were administered in a volume of 100 μl intraperitoneally 1 hour before the induction of the inflammatory reaction. Doses of 0.1, 0.3 e 1 mg/kg were tested.
Carrageenan edema in the paw of the CD-1 mice involves the sub-plantar administration of 50 μl of 1% carrageenan and the measurement of the increase in the volume of the paw by using a hydroplethysmometer. This experimental model has a biphasic development (Posadas et al., Br J Pharmacol 2004 May; 142(2):331-338). The first phase, which is acute, is sustained by an increase in permeability accompanied by infiltration of neutrophils, which develops and resolves between 4 and 5 hours. The second phase occurs after 24 hours and is characterized by macrophage infiltration and has the characteristics of sub chronic inflammation, which reaches its maximum after 72 hours and resolves after 5 days. Bud and Bud 21-P Na2 have been tested. Both compounds were administered in a volume of 100 μl intraperitoneally 1 hour before the induction of the inflammatory reaction. Doses of 0.1, 0.3 e 1 mg/kg were tested.

[4] = at physiological pH in the intestinal region; cited from earlier work
[5] = test system: leukocyte recruitment to the bronchoalveolar space in OVA-induced allergic Balb/c mice; assay: BAL fluid total and differential leukocyte counts in OVA-induced allergic asthma; type: in vivo; settings: 4 weeks, vs Sham
Description: (§1) In Protocol 2, the test compounds Bud (MW: 430.53 g/mol) and Bud-21 P Na2 (MW: 554.48 g/mol) were administered at equimolar doses of 3, 10 and 30 nmol/animal/day, equivalent to 1.3, 4.3 and 12.9 μg/animal/day of Bud, 1.7, 5.5 and […] of Bud-21 P Na2, respectively. The compounds were dissolved in 10% sterile saline+90% DMSO (Sigma Chemical Co., St. Louis, MO) at the correspondent concentrations at which the above-mentioned doses per animal result from the intra-nasal (i.n.) administration of 10 μl/animal (5 μl/nostril) of each of the solutions.
Mice were sensitized with two subcutaneous injections of 0.2 ml of OVA/Al(OH)3, with an interval of 7 days (Sham animals received the Al(OH)3 suspension in PBS with no OVA). Seven days after the second sensitization (i.e., 3rd week), the animals were nebulized twice a week with the 1% OVA solution (Sham and untreated OVA groups were nebulized with PBS) during 20 minutes for the next […]. […]
After Penh evaluation, the mice were anesthetized with inhaled isofluorane (5% v/v in O2) and blood samples were collected from the descending abdominal aorta. […] Total cell counts were determined using a Neubauer chamber, and differential counting was carried out in cytospin (Fanem Mod 2400; Sao Paulo, Brazil) preparations stained with May-Grünwald dye. […]

[6] = test system: methacholine-induced bronchoconstriction in OVA-induced allergic Balb/c mice; assay: Lung hyperreactivity / Penh function in OVA-induced allergic asthma; type: in vivo; settings: 3, 10 and 30 nmol/animal/day i.n., 4 weeks; vs untreated OVA group
Description: as §1
Chicken egg-white ovalbumin (OVA; grade V, cat. A5503, Sigma Chemical Co., St. Louis, MO) was dissolved in sterile phosphate buffered saline (PBS) solution (250 μg/ml) and Al(OH)3 was added (at 13 mg/ml). This mix was used to induce the allergic sensitization of the animals by subcutaneous injection. OVA was dissolved at 1% in sterile PBS solution and this solution was nebulized (as the immunological challenges).
Mice were sensitized with two subcutaneous injections of 0.2 ml of OVA/Al(OH)3, with an interval of 7 days (Sham animals received the Al(OH)3 suspension in PBS with no OVA). Seven days after the second sensitization (i.e., 3rd week), the animals were nebulized twice a week with the 1% OVA solution (Sham and untreated OVA groups were nebulized with PBS) during 20 minutes for the next […].
Three hours after the challenges (OVA nebulization) and daily during the next 4 weeks (following the first OVA challenge), mice were intra-nasally treated (10 μl/animal as 5 μl/nostril) with the respective compounds/vehicle, and the last dose was administered 30 min before the Penh measurement at the end of the 6th week.
Airway responsiveness in conscious, spontaneously breathing animals was measured at the end of the 6th week (i.e., after 4-week OVA challenges+treatments), 24 h after the last OVA/PBS challenge via whole body plethysmography (Buxco Europe Ltd, Winchester, UK), as previously described (Santos et al., 2014). Experiments were carried out in a quiet room by an investigator who was unaware of the nature of treatments.
Aerosolized saline (50 μl/mouse during 60 s) and then the muscarinic agonist methacholine (MCh) at increasing concentrations (3.12, 6.25, 12.5 and 25.0 mg/ml in PBS) was nebulized through an inlet of the main chamber for 3 min each to induce bronchoconstriction and readings were taken and averaged for 6 min following each nebulization. After 20 min, the baseline values usually returned at the end of this period. Enhanced pause (Penh) was measured as an indicator of bronchoconstriction and consequent increase of airway resistance as: Penh=[(expiration time/relaxation time)−1]/(maximum expiration flow/maximum inspiration flow).

[7] = 0.70 μmol/kg i.p. (0.30 mg/kg Bud, 0.39 mg/kg Bud-21 P—Na2)

Row | Compound | logP [1] | BK-induced edema [2, 7] | C48/80-induced edema [2, 7] | BK-induced plasma extravasation [2] | reduction of C48/80-induced plasma extravasation [2] | time after carrageenan at which the significant inhibition level is reached (onset of effect) [3] [h] | dose relation of anti-inflammatory effect [3] | maximum inhibition of edema [3] | solubility in water [4] [µg/mL] | total BAL leukocytes compared with Sham ([5]; 3 nmol/animal/day i.n.) | BAL macrophages compared with Sham ([5]; either 3 or 10 nmol/animal/day i.n.) | Penh AUC (area under Penh vs methacholine curve) [6] | Penh Emax (maximal response) [6] | inhibition of edema formation ([3]; 0.1 mg/kg i.p. 60 min before carrageenan) [%]
1 | CCCC1OC2CC3C4CCC5=CC(=O)C=CC5(C)C4C(O)CC3(C)C2(C(=O)CO)O1 (stereo not drawn) [Bud, 11β,21-dihydroxy-16α,17α-(butylidenebis(oxy))pregna-1,4-diene-3,20-dione] | 3.2 | ineffective | ineffective | abolished | approximately 50% | 6 | not dose-related | about 50% | 28 (≈ 65 µM) | still significantly higher than that observed in the Sham mice | still significantly higher than those observed in the Sham group | significant reduction of this response just at the highest dose | significant reduction of this response just at the highest dose | –
2 | Budesonide 21-phosphate sodium salt [Bud-21 P—Na2] | – | – | significantly inhibited | abolished | approximately 50% | 2 | dose-related anti-inflammatory effect | 70% | – | – | – | significantly reduced | significantly reduced | 50
